Measured values as given in US20260078120A1, “SUBSTITUTED PYRIDOPYRIMIDINONES” (MIRATI THERAPEUTICS, INC., priority 2022, published 2026).
Read-outs that look alike come from different tables or passages of the source.

What was measured:
[1] = test system: SKBR3 (PI3Kα wild type) cells; assay: CellTiter-Glo 2.0 luminescent cell viability assay, 72 hours, SKBR3 cells; type: cell-based; settings: SKBR3 (PI3Kα wild type) cells, CellTiter-Glo, approximately 72 hours, read-out: SKBR3 (WT) Viability IC50
Outline: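 Viability measured via CTG luminescence following roughly 72 hours of compound exposure at 37° C. Dosing used a 10 um starting concentration diluted 1:4 over 10 points; percent-of-vehicle data fitted with a variable-slope four-parameter model for IC50.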

[2] = test system: T47D (PI3Kα H1047R mutant) cells; assay: CellTiter-Glo 2.0 luminescent cell viability assay, 72 hours, T47D cells; type: cell-based; settings: T47D (PI3Kα H1047R mutant) cells, CellTiter-Glo, approximately 72 hours, read-out: T47D (H1047R mutant) Viability IC50
Outline: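 Cells seeded at 1000 per well overnight were dosed with a 10-concentration, 1:4 series starting at 10 µM and incubated ~72 h at 37° C. Viability was read by CellTiter-Glo 2.0 luminescence after 30 min at room temperature. IC50 came from four-parameter fits of percent vehicle control.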

IC50 ([1]; Homo sapiens, SK-BR-3, 72 h) [nM] | IC50 ([2]; Homo sapiens, T47D, 72 h) [nM] | IC50 [1] [nM] | IC50 [2] [nM] | Compound
> 10000 | 3690 |  |  | C=C(C#N)CNc1nc2c([C@@H](C)Nc3ccccc3C(=O)O)cc(C)cn2c(=O)c1C#N [Example 11-108, (R)-2-((1-(3-cyano-2-((2-cyanoallyl)amino)-7-methyl-4-oxo-4H-pyrido[1,2-a]pyrimidin-9-yl)ethyl)amino)benzoic acid]
 |  | > 10000 | 2970 | Cc1cc([C@@H](C)Nc2ccc(F)nc2C(=O)O)c2nc(N3CCC(F)(F)CC3)c(C)c(=O)n2c1 [Example 11-45, (R)-3-((1-(2-(4,4-difluoropiperidin-1-yl)-3,7-dimethyl-4-oxo-4H-pyrido[1,2-a]pyrimidin-9-yl)ethyl)amino)-6-fluoropicolinic acid]
> 10000 | 540 |  |  | CCN(CC)c1nc2c([C@@H](C)Nc3ccccc3C(=O)O)cc(C)cn2c(=O)c1C#N [Example 11-320, (R)-2-((1-(3-cyano-2-(diethylamino)-7-methyl-4-oxo-4H-pyrido[1,2-a]pyrimidin-9-yl)ethyl)amino)benzoic acid]
> 10000 | 1650 |  |  | Cc1cc(C(C)Nc2ccccc2C(=O)O)c2nc(N3CCCCC3)c(C3CC3)c(=O)n2c1 (stereo not shown) [Example 11-413, 2-((1-(3-cyclopropyl-7-methyl-4-oxo-2-(piperidin-1-yl)-4H-pyrido[1,2-a]pyrimidin-9-yl)ethyl)amino)benzoic acid]
> 10000 | 201 |  |  | Cc1cc([C@@H](C)Nc2ccccc2C(=O)O)c2nc(N3C[C@H]4C[C@@H]3CC4(F)F)c(C#N)c(=O)n2c1 [Example 11-230, 2-(((R)-1-(3-cyano-2-((1R,4R)-5,5-difluoro-2-azabicyclo[2.2.1]heptan-2-yl)-7-methyl-4-oxo-4H-pyrido[1,2-a]pyrimidin-9-yl)ethyl)amino)benzoic acid]
> 10000 | 195 |  |  | Cc1cc([C@@H](C)Nc2ccccc2C(=O)O)c2nc(N3CCCC(F)(F)C3)c(C#N)c(=O)n2c1 [Example 11-297, (R)-2-((1-(3-cyano-2-(3,3-difluoropiperidin-1-yl)-7-methyl-4-oxo-4H-pyrido[1,2-a]pyrimidin-9-yl)ethyl)amino)benzoic acid]
> 10000 | > 10000 |  |  | CCC(Nc1ccccc1C(=O)O)c1cc(C)cn2c(=O)cc(N3CCCCC3)nc12 (stereo not shown) [Example 11-411, 2-((1-(7-methyl-4-oxo-2-(piperidin-1-yl)-4H-pyrido[1,2-a]pyrimidin-9-yl)propyl)amino)benzoic acid]
> 10000 | 511 |  |  | CC(=O)N1CCC(c2nc3c([C@@H](C)Nc4ccccc4C(=O)O)cc(C)cn3c(=O)c2C#N)CC1 [Example 11-256, (R)-2-((1-(2-(1-acetylpiperidin-4-yl)-3-cyano-7-methyl-4-oxo-4H-pyrido[1,2-a]pyrimidin-9-yl)ethyl)amino)benzoic acid]
> 10000 | 227 |  |  | Cc1cc([C@@H](C)Nc2ccccc2C(=O)O)c2nc(N3CCN(c4ccc(C#N)cc4)[C@H](C)C3)c(C#N)c(=O)n2c1 [Example 11-270, 2-(((R)-1-(3-cyano-2-((R)-4-(4-cyanophenyl)-3-methylpiperazin-1-yl)-7-methyl-4-oxo-4H-pyrido[1,2-a]pyrimidin-9-yl)ethyl)amino)benzoic acid]
> 10000 | 117 |  |  | Cc1c(N2Cc3ccccc3C2)nc2c([C@@H](C)Nc3ccccc3C(=O)O)cc(Cl)cn2c1=O [Example 11-291, (R)-2-((1-(7-chloro-2-(isoindolin-2-yl)-3-methyl-4-oxo-4H-pyrido[1,2-a]pyrimidin-9-yl)ethyl)amino)benzoic acid]
> 10000 | 325 |  |  | Cc1cc([C@@H](C)Nc2ccccc2C(=O)O)c2nc(N3CCC4(CC3)CC(F)(F)C4)c(C)c(=O)n2c1 [Example 11-54, (R)-2-((1-(2-(2,2-difluoro-7-azaspiro[3.5]nonan-7-yl)-3,7-dimethyl-4-oxo-4H-pyrido[1,2-a]pyrimidin-9-yl)ethyl)amino)benzoic acid]
6210 | 1260 |  |  | Cc1cc([C@@H](C)Nc2ccc(Cl)nc2C(=O)O)c2nc(N3CCCCC3)c(C)c(=O)n2c1 [Example 11-358, (R)-6-chloro-3-((1-(3,7-dimethyl-4-oxo-2-(piperidin-1-yl)-4H-pyrido[1,2-a]pyrimidin-9-yl)ethyl)amino)picolinic acid]
> 10000 | 120 |  |  | Cc1cc([C@@H](C)Nc2ccccc2C(=O)O)c2nc(N3CC4CC4C3)c(C)c(=O)n2c1 (stereo partly drawn) [Example 11-224, 2-(((1R)-1-(2-(3-azabicyclo[3.1.0]hexan-3-yl)-3,7-dimethyl-4-oxo-4H-pyrido[1,2-a]pyrimidin-9-yl)ethyl)amino)benzoic acid]
> 10000 | 304 |  |  | Cc1cc([C@@H](C)Nc2ccccc2C(=O)O)c2nc(N3CC4(C3)CC(F)(F)C4)c(C)c(=O)n2c1 [Example 11-202, (R)-2-((1-(2-(6,6-difluoro-2-azaspiro[3.3]heptan-2-yl)-3,7-dimethyl-4-oxo-4H-pyrido[1,2-a]pyrimidin-9-yl)ethyl)amino)benzoic acid]
> 10000 | 473 |  |  | Cc1cc([C@@H](C)Nc2ccccc2C(=O)O)c2nc(N3CC[C@@H]3C(F)(F)F)c(C)c(=O)n2c1 [Example 11-98, 2-(((R)-1-(3,7-dimethyl-4-oxo-2-((R)-2-(trifluoromethyl)azetidin-1-yl)-4H-pyrido[1,2-a]pyrimidin-9-yl)ethyl)amino)benzoic acid]
> 10000 | 301 |  |  | Cc1cc([C@@H](C)Nc2ccc(Cl)nc2C(=O)O)c2nc(N3CCCCC3)c(C#N)c(=O)n2c1 [Example 11-331, (R)-6-chloro-3-((1-(3-cyano-7-methyl-4-oxo-2-(piperidin-1-yl)-4H-pyrido[1,2-a]pyrimidin-9-yl)ethyl)amino)picolinic acid]
> 10000 | 158 |  |  | Cc1cc([C@@H](C)Nc2ccccc2C(=O)O)c2nc(N3CC[C@H](C)C(F)(F)C3)c(C)c(=O)n2c1 [Example 11-60, 2-(((R)-1-(2-((S)-3,3-difluoro-4-methylpiperidin-1-yl)-3,7-dimethyl-4-oxo-4H-pyrido[1,2-a]pyrimidin-9-yl)ethyl)amino)benzoic acid]
> 10000 | 4040 |  |  | COc1ccc(-c2cc(=O)n3cc(C)cc(C(C)Nc4ccccc4C(=O)O)c3n2)cc1 (stereo not shown) [Example 11-392, 2-((1-(2-(4-methoxyphenyl)-7-methyl-4-oxo-4H-pyrido[1,2-a]pyrimidin-9-yl)ethyl)amino)benzoic acid]
> 10000 | 3010 |  |  | Cc1cc([C@@H](C)Nc2ccccc2C(=O)O)c2nc(N3CCn4cc(C(F)(F)F)nc4C3)c(C)c(=O)n2c1 [Example 11-433, (R)-2-((1-(3,7-dimethyl-4-oxo-2-(2-(trifluoromethyl)-5,6-dihydroimidazo[1,2-a]pyrazin-7(8H)-yl)-4H-pyrido[1,2-a]pyrimidin-9-yl)ethyl)amino)benzoic acid]
> 10000 | 180 |  |  | Cc1cc([C@@H](C)Nc2ccccc2C(=O)O)c2nc(N3CC[C@@H]3C)c(C)c(=O)n2c1 [Example 11-101, 2-(((R)-1-(3,7-dimethyl-2-((S)-2-methylazetidin-1-yl)-4-oxo-4H-pyrido[1,2-a]pyrimidin-9-yl)ethyl)amino)benzoic acid]
> 10000 | 347 |  |  | Cc1cc([C@@H](C)Nc2ccccc2C(=O)O)c2nc(N3CCN(C4CC4)CC3)c(C)c(=O)n2c1 [Example 11-151, (R)-2-((1-(2-(4-cyclopropylpiperazin-1-yl)-3,7-dimethyl-4-oxo-4H-pyrido[1,2-a]pyrimidin-9-yl)ethyl)amino)benzoic acid]
> 10000 | 1650 |  |  | Cc1cc([C@@H](C)Nc2ccccc2C(=O)O)c2nc(NC34CC(CO)(C3)C4)c(C#N)c(=O)n2c1 [Example 11-282, (R)-2-((1-(3-cyano-2-((3-(hydroxymethyl)bicyclo[1.1.1]pentan-1-yl)amino)-7-methyl-4-oxo-4H-pyrido[1,2-a]pyrimidin-9-yl)ethyl)amino)benzoic acid]
> 10000 | 185 |  |  | Cc1cc([C@@H](C)Nc2ccccc2C(=O)O)c2nc(N3CC[C@H]3CF)c(C)c(=O)n2c1 [Example 11-94, 2-(((R)-1-(2-((S)-2-(fluoromethyl)azetidin-1-yl)-3,7-dimethyl-4-oxo-4H-pyrido[1,2-a]pyrimidin-9-yl)ethyl)amino)benzoic acid]
> 10000 | 100 |  |  | Cc1cc([C@@H](C)Nc2ccccc2C(=O)O)c2nc(N3CC4CCC(C3)C4O)c(C)c(=O)n2c1 (stereo partly drawn) [Example 10-146, 2-(((1R)-1-(2-(8-hydroxy-3-azabicyclo[3.2.1]octan-3-yl)-3,7-dimethyl-4-oxo-4H-pyrido[1,2-a]pyrimidin-9-yl)ethyl)amino)benzoic acid]

Compound | IC50 ([1]; Homo sapiens, SK-BR-3, 72 h) [nM] | IC50 ([2]; Homo sapiens, T47D, 72 h) [nM] | IC50 [1] [nM] | IC50 [2] [nM]
Cc1cc(C(C)Nc2ccccc2C(=O)O)c2nc(C3=CCNCC3)cc(=O)n2c1 (stereo not shown) [Example 11-378, 2-((1-(7-methyl-4-oxo-2-(1,2,3,6-tetrahydropyridin-4-yl)-4H-pyrido[1,2-a]pyrimidin-9-yl)ethyl)amino)benzoic acid] | > 10000 | > 10000 |  | 
Cc1cc([C@@H](C)Nc2ccccc2C(=O)O)c2nc(N3CC4CC(C3)N4c3ccc(C#N)cc3)c(C)c(=O)n2c1 [Example 11-135, 2-(((1R)-1-(2-(6-(4-cyanophenyl)-3,6-diazabicyclo[3.1.1]heptan-3-yl)-3,7-dimethyl-4-oxo-4H-pyrido[1,2-a]pyrimidin-9-yl)ethyl)amino)benzoic acid] | > 10000 | 169 |  | 
